Measurements reported in PubChem BioAssay (NCI).
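In this assay, cells in 96-well plates receive the compound at five concentrations for 48 hours. Endpoints are linearly interpolated between the surrounding concentrations. At the TGI there is no net growth.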

Legend:
Experiment in all cases: growth of human tumour cells (NCI), 48 h
[1] = system: 786-0 renal
[2] = system: A549 NSCLC
[3] = system: ACHN renal
[4] = system: CAKI-1 renal
[5] = system: CCRF-CEM leukemia
[6] = system: DLD-1 colon
[7] = system: DMS 114 small cell lung
[8] = system: EKVX NSCLC
[9] = system: HCC-2998 colon
[10] = system: HCT-116 colon
[11] = system: HCT-15 colon
[12] = system: HL-60(TB) leukemia
[13] = system: HOP-18 NSCLC
[14] = system: HOP-62 NSCLC
[15] = system: HOP-92 NSCLC
[16] = system: HT29 colon
[17] = system: IGROV1 ovarian
[18] = system: K-562 leukemia
[19] = system: KM12 colon
[20] = system: KM20L2 colon
[21] = system: LOX IMVI melanoma
[22] = system: LXFL 529 NSCLC
[23] = system: M14 melanoma
[24] = system: M19-MEL melanoma
[25] = system: MALME-3M melanoma
[26] = system: MOLT-4 leukemia
[27] = system: NCI-H226 lung
[28] = system: NCI-H23 lung
[29] = system: NCI-H460 lung
[30] = system: NCI-H522 lung
[31] = system: OVCAR-3 ovarian
[32] = system: OVCAR-4 ovarian
[33] = system: OVCAR-5 ovarian
[34] = system: OVCAR-8 ovarian
[35] = system: RPMI-8226 leukemia
[36] = system: RXF 393 renal
[37] = system: RXF-631 renal
[38] = system: SF-268 CNS
[39] = system: SF-295 CNS
[40] = system: SF-539 CNS
[41] = system: SK-MEL-2 melanoma
[42] = system: SK-MEL-28 melanoma
[43] = system: SK-MEL-5 melanoma
[44] = system: SK-OV-3 ovarian
[45] = system: SN12C renal
[46] = system: SNB-19 CNS
[47] = system: SNB-78 CNS
[48] = system: SR leukemia
[49] = system: SW-620 colon
[50] = system: TK-10 renal
[51] = system: U251 CNS
[52] = system: UACC-257 melanoma
[53] = system: UACC-62 melanoma
[54] = system: UO-31 renal
[55] = system: XF 498 CNS
[56] = system: A498 renal
[57] = system: DMS 273 small cell lung
[58] = system: SNB-75 CNS
[59] = system: COLO 205 colon

COc1ccc2c(c1)[n+](=O)c(C(=O)CC(=O)C(=O)Nc1cccc(C)c1C)c(C)n2[O-]
TGI [1]: > 100 µM
TGI [2]: > 100 µM
TGI [3]: > 100 µM
TGI [4]: > 100 µM
TGI [5]: > 100 µM
TGI [6]: > 100 µM
TGI [7]: > 100 µM
TGI [8]: > 100 µM
TGI [9]: > 100 µM
TGI [10]: > 100 µM
TGI [11]: > 100 µM
TGI [12]: > 100 µM
TGI [13]: > 100 µM
TGI [14]: > 100 µM
TGI [15]: > 100 µM
TGI [16]: > 100 µM
TGI [17]: > 100 µM
TGI [18]: > 100 µM
TGI [19]: > 100 µM
TGI [20]: > 100 µM
TGI [21]: > 100 µM
TGI [22]: > 100 µM
TGI [23]: > 100 µM
TGI [24]: > 100 µM
TGI [25]: > 100 µM
TGI [26]: > 100 µM
TGI [27]: > 100 µM
TGI [28]: > 100 µM
TGI [29]: > 100 µM
TGI [30]: > 100 µM
TGI [31]: > 100 µM
TGI [32]: > 100 µM
TGI [33]: > 100 µM
TGI [34]: > 100 µM
TGI [35]: > 100 µM
TGI [36]: > 100 µM
TGI [37]: > 100 µM
TGI [38]: > 100 µM
TGI [39]: > 100 µM
TGI [40]: > 100 µM
TGI [41]: > 100 µM
TGI [42]: > 100 µM
TGI [43]: > 100 µM
TGI [44]: > 100 µM
TGI [45]: > 100 µM
TGI [46]: > 100 µM
TGI [47]: > 100 µM
TGI [48]: > 100 µM
TGI [49]: > 100 µM
TGI [50]: > 100 µM
TGI [51]: > 100 µM
TGI [52]: > 100 µM
TGI [53]: > 100 µM
TGI [54]: > 100 µM
TGI [55]: > 100 µM

c1ccc(C2CC(c3ccc4ccccc4c3)=Nc3ccccc3S2)cc1 (stereo not drawn)
TGI [1]: 30.2 µM
TGI [56]: 31.1 µM
TGI [2]: 38.8 µM
TGI [3]: 31.2 µM
TGI [5]: 99.7 µM
TGI [57]: 48.6 µM
TGI [8]: 50.7 µM
TGI [9]: 24.8 µM
TGI [10]: 30 µM
TGI [12]: 55.9 µM
TGI [13]: 58.5 µM
TGI [14]: 38.2 µM
TGI [16]: 30.8 µM
TGI [17]: 49 µM
TGI [18]: 59.3 µM
TGI [19]: 38.8 µM
TGI [20]: 33.1 µM
TGI [21]: 29.5 µM
TGI [22]: 27.6 µM
TGI [23]: 31.2 µM
TGI [24]: 40.5 µM
TGI [25]: 35.8 µM
TGI [26]: > 100 µM
TGI [27]: 42.7 µM
TGI [28]: 28.9 µM
TGI [29]: 29.1 µM
TGI [30]: 33.2 µM
TGI [31]: 38.7 µM
TGI [32]: 37.5 µM
TGI [33]: 37.6 µM
TGI [34]: 29.9 µM
TGI [35]: > 100 µM
TGI [36]: 33.4 µM
TGI [37]: 91.1 µM
TGI [38]: 31.1 µM
TGI [39]: 31.7 µM
TGI [40]: 31.5 µM
TGI [41]: 34.6 µM
TGI [42]: 33.1 µM
TGI [43]: 35.3 µM
TGI [44]: 80.9 µM
TGI [45]: 30.4 µM
TGI [46]: 36.7 µM
TGI [58]: 40.4 µM
TGI [47]: 37.3 µM
TGI [48]: > 100 µM
TGI [49]: 33.8 µM
TGI [50]: 37.8 µM
TGI [51]: 31 µM
TGI [52]: 34.9 µM
TGI [53]: 35.2 µM
TGI [54]: 25.1 µM
TGI [55]: 31.2 µM

CN1CCCN2CCN(C)CCCN(CC1)CC2
TGI [1]: > 100 µM
TGI [56]: > 100 µM
TGI [4]: > 100 µM
TGI [5]: > 100 µM
TGI [59]: > 100 µM
TGI [6]: > 100 µM
TGI [7]: > 100 µM
TGI [57]: > 100 µM
TGI [9]: > 100 µM
TGI [10]: > 100 µM
TGI [12]: > 100 µM
TGI [14]: > 100 µM
TGI [15]: > 100 µM
TGI [17]: > 100 µM
TGI [18]: > 100 µM
TGI [21]: > 100 µM
TGI [22]: > 100 µM
TGI [23]: > 100 µM
TGI [24]: > 100 µM
TGI [25]: > 100 µM
TGI [26]: > 100 µM
TGI [27]: > 100 µM
TGI [28]: > 100 µM
TGI [29]: > 100 µM
TGI [30]: > 100 µM
TGI [32]: > 100 µM
TGI [35]: > 100 µM
TGI [37]: > 100 µM
TGI [38]: > 100 µM
TGI [40]: > 100 µM
TGI [41]: > 100 µM
TGI [42]: > 100 µM
TGI [44]: > 100 µM
TGI [45]: > 100 µM
TGI [58]: > 100 µM
TGI [47]: > 100 µM
TGI [48]: > 100 µM
TGI [53]: > 100 µM
TGI [54]: > 100 µM
TGI [55]: > 100 µM
